Laboratory results taken from US20100316529A1, “Anti-Microbial Systems and Methods” (priority 2001, published 2010).
Values joined by “and” are separate entries in the source; they are usually repeats but may differ in a detail not shown here. Equal entries are not always repeated.

What was measured:
[1] = test system: Ent. faecalis; test: EDTA salt dilution test, MIC/MBC; format: cell-based
Description: (§1) Protocol one: Broth dilutions:
(§2) Inoculate a 25 ml nutrient broth (Oxoid No2) in a sterile universal container with one of the following organisms; Pseudomonas aeruginosa, Proteus Mirabilis, E. coli, Klebsiella pneumoniae, Staph aureus, Coagulase negative staphylococci, Enterococcus faecalis or MRSA.
(§3) Incubate the broth at 37° C. overnight.
(§4) To make these concentrations put the EDTA needed for 10 mLs in only 9 mLs of broth in sterile universal containers, as this will be diluted further when the organisms are added.
(§5) Dilute the overnight broth cultures to 10^7 organisms/mL using more sterile nutrient broth.
(§6) Add 1 mL of this diluent to each of the EDTA series broths. This gives a final concentration of 10^6 organism/mL in the EDTA broths.
(§7) Incubate for 18 hours at 37° C.
(§8) Next day visually read the MIC's by observing the turbidity of the broths.
(§9) Plate out 1 uL of each dilution onto fresh blood agar plate and spread using a sterile plastic spreader.
(§10) Incubate overnight at 37° C.
(§11) Next day read the MBC's by performing colony counts.

[2] = test system: Kleb. pnemoniae; test: EDTA salt dilution test, MIC/MBC; format: cell-based; details: two entries
Description: as §1, §2, §3, §4, §5, §6, §7, §8, §9, §10, §11

[3] = test system: MRSA; test: EDTA salt dilution test, MIC/MBC; format: cell-based; details: five entries, Exhibit A2
Description: as §1, §2, §3, §4, §5, §6, §7, §8, §9, §10, §11

[4] = test system: Proteus mirabilis; test: EDTA salt dilution test, MIC/MBC; format: cell-based; details: two entries
Description: as §1, §2, §3, §4, §5, §6, §7, §8, §9, §10, §11

[5] = test system: Pseudomonas aeruginosa; test: EDTA salt dilution test, MIC/MBC; format: cell-based; details: two entries
Description: as §1, §2, §3, §4, §5, §6, §7, §8, §9, §10, §11

[6] = test system: Pseudomonas sp.; test: EDTA salt dilution test, MIC/MBC; format: cell-based
Description: as §1, §2, §3, §4, §5, §6, §7, §8, §9, §10, §11

[7] = test system: S. aureus; test: EDTA salt dilution test, MIC/MBC; format: cell-based; details: five entries, Exhibit A2
Description: as §1, §2, §3, §4, §5, §6, §7, §8, §9, §10, §11

[8] = test system: S. capitis; test: EDTA salt dilution test, MIC/MBC; format: cell-based; details: two entries, Exhibit A2
Description: as §1, §2, §3, §4, §5, §6, §7, §8, §9, §10, §11

[9] = test system: S. epidermidis; test: EDTA salt dilution test, MIC/MBC; format: cell-based; details: two entries
Description: as §1, §2, §3, §4, §5, §6, §7, §8, §9, §10, §11

[10] = test system: S. lentus; test: EDTA salt dilution test, MIC/MBC; format: cell-based
Description: as §1, §2, §3, §4, §5, §6, §7, §8, §9, §10, §11

[11] = test system: S. simulans; test: EDTA salt dilution test, MIC/MBC; format: cell-based
Description: as §1, §2, §3, §4, §5, §6, §7, §8, §9, §10, §11

[12] = test system: S. xylosus; test: EDTA salt dilution test, MIC/MBC; format: cell-based
Description: as §1, §2, §3, §4, §5, §6, §7, §8, §9, §10, §11

[13] = test system: VRE; test: EDTA salt dilution test, MIC/MBC; format: cell-based; details: two entries
Description: as §1, §2, §3, §4, §5, §6, §7, §8, §9, §10, §11

[14] = test system: Ent. faeculm; test: EDTA salt dilution test, MIC/MBC; format: cell-based
[15] = test system: Kleb. oxytoca; test: EDTA salt dilution test, MIC/MBC; format: cell-based
[16] = test system: Kleb. ornitholytica; test: EDTA salt dilution test, MIC/MBC; format: cell-based
[17] = test system: Ent. cloacae; test: EDTA salt dilution test, MIC/MBC; format: cell-based; details: three entries
[18] = test system: Steno. maltophilia; test: EDTA salt dilution test, MIC/MBC; format: cell-based
[19] = test system: Cornyeform amycolatum; test: EDTA salt dilution test, MIC/MBC; format: cell-based
[20] = test system: Coryneform strait/amy; test: EDTA salt dilution test, MIC/MBC; format: cell-based
[21] = test system: Acinetobacter baumanii; test: EDTA salt dilution test, MIC/MBC; format: cell-based; details: two entries, Exhibit A2
[22] = test system: Proteus vulgaris; test: EDTA salt dilution test, MIC/MBC; format: cell-based
[23] = test system: C. lucitaniae; test: EDTA agar dilution method, yeasts, MIC/MBC; format: cell-based; details: Exhibit C
Text: (§12) Protocol 3: Agar dilutions.
Do this until all the media is used up.

[24] = test system: C. albicans; test: EDTA agar dilution method, yeasts, MIC/MBC; format: cell-based; details: three entries, Exhibit C
Description: (§13) The bactericidal effects were measured as the Minimum Bactericidal Concentration (MBC), while the inhibitory effects were measured as the Minimum Inhibitory Concentration (MIC). In each case, the concentration was measured as milligrams of the disinfectant salt per milliliter of water (mg/ml).
as §12
(§14) Prepare nutrient agar plates with increasing concentrations of EDTA, 0, 0.5, 1, 1.5, 2, 4, 6, 8, 10, 15, 20, 25, 30 mg/mL, using the following method. • Pour 300 mL distilled water into a sterile glass bottle. • Add the appropriate amount of EDTA. This is the concentration desired ×300, in grams. • Once the EDTA has fully dissolved, add 8.4 g of Nutrient agar powder (Oxoid). Mix thoroughly. • Do this for each concentration of EDTA required. […] Do this until all the media is used up. Label the plates with the concentration of EDTA they contain. • These plates can then be stored, until they are needed, in a 4° C. fridge. • Use an automatic plate inoculator to inoculate each plate with 21 organisms.

[25] = test system: C. glabrata; test: EDTA agar dilution method, yeasts, MIC/MBC; format: cell-based; details: two entries, Exhibit C
Description: as §13, §12, §14

[26] = test system: C. guilliermondii; test: EDTA agar dilution method, yeasts, MIC/MBC; format: cell-based; details: Exhibit C
Description: as §13, §12, §14

[27] = test system: C. parapsilosis; test: EDTA agar dilution method, yeasts, MIC/MBC; format: cell-based; details: Exhibit C
Description: as §13, §12, §14

[28] = test system: C. tropicalis; test: EDTA agar dilution method, yeasts, MIC/MBC; format: cell-based; details: Exhibit C
Description: as §13, §12, §14

[29] = test system: variety of yeasts

SMILES: O=C([O-])CN(CCN(CC(=O)[O-])CC(=O)[O-])CC(=O)[O-].[Na+].[Na+].[Na+].[Na+] [Tetrasodium EDTA]
- MBC, minimum concentration required to kill an entire population ([1]; Exhibit A1): 10 mg/mL
- MIC, minimum concentration required to inhibit growth ([1]; Exhibit A2): 1 mg/mL
- MBC, minimum concentration required to kill an entire population ([2]; Exhibit A1): 15 mg/mL
- MIC, minimum concentration required to inhibit growth ([2]; Exhibit A2): 8 mg/mL and 4 mg/mL
- MIC, minimum concentration required to inhibit growth [3]: 1 mg/mL
- MBC, minimum concentration required to kill an entire population ([4]; Exhibit A1): 20 mg/mL
- MIC, minimum concentration required to inhibit growth ([4]; Exhibit A2): 1 mg/mL
- MBC, minimum concentration required to kill an entire population ([5]; Exhibit A1): 20 mg/mL
- MIC, minimum concentration required to inhibit growth ([5]; Exhibit A2): 2 mg/mL
- MBC, minimum concentration required to kill an entire population ([6]; Exhibit A1): 30 mg/mL
- MIC, minimum concentration required to inhibit growth ([6]; Exhibit A2): 2 mg/mL
- MIC, minimum concentration required to inhibit growth [7]: <0.5 mg/mL and 1 mg/mL
- MIC, minimum concentration required to inhibit growth [8]: 1 mg/mL and <0.5 mg/mL
- MBC, minimum concentration required to kill an entire population ([9]; Exhibit A1): 1 mg/mL and 2 mg/mL
- MIC, minimum concentration required to inhibit growth ([9]; Exhibit A2): 1 mg/mL
- MBC, minimum concentration required to kill an entire population ([10]; Exhibit A1): 30 mg/mL
- MIC, minimum concentration required to inhibit growth ([10]; Exhibit A2): 1 mg/mL
- MBC, minimum concentration required to kill an entire population ([11]; Exhibit A1): 30 mg/mL
- MIC, minimum concentration required to inhibit growth ([11]; Exhibit A2): 1 mg/mL
- MBC, minimum concentration required to kill an entire population ([12]; Exhibit A1): 25 mg/mL
- MIC, minimum concentration required to inhibit growth ([12]; Exhibit A2): <0.5 mg/mL
- MBC, minimum concentration required to kill an entire population ([13]; Exhibit A1): 15 mg/mL and >30 mg/mL
- MIC, minimum concentration required to inhibit growth ([13]; Exhibit A2): 1 mg/mL
- MIC, minimum concentration required to inhibit growth ([14]; Ent. faecuim, Exhibit A2): <0.5 mg/mL
- MBC, minimum concentration required to kill an entire population ([14]; Ent. faeculm, Exhibit A1): >30 mg/mL
- MBC, minimum concentration required to kill an entire population ([15]; Exhibit A1): 8 mg/mL
- MIC, minimum concentration required to inhibit growth ([15]; Exhibit A2): 4 mg/mL
- MBC, minimum concentration required to kill an entire population ([16]; Exhibit A1): 30 mg/mL
- MIC, minimum concentration required to inhibit growth ([16]; Exhibit A2): 4 mg/mL
- MBC, minimum concentration required to kill an entire population ([17]; Exhibit A1): 20 mg/mL
- MIC, minimum concentration required to inhibit growth ([17]; Exhibit A2): 8 mg/mL and 10 mg/mL
- MBC, minimum concentration required to kill an entire population ([18]; Exhibit A1): 4 mg/mL
- MIC, minimum concentration required to inhibit growth ([18]; Exhibit A2): 1 mg/mL
- MBC, minimum concentration required to kill an entire population ([19]; Exhibit A1): <0.5 mg/mL
- MIC, minimum concentration required to inhibit growth ([19]; Exhibit A2): <0.5 mg/mL
- MBC, minimum concentration required to kill an entire population ([20]; Exhibit A1): <0.5 mg/mL
- MIC, minimum concentration required to inhibit growth ([20]; Exhibit A2): <0.5 mg/mL
- MIC, minimum concentration required to inhibit growth [21]: <0.5 mg/mL and 1 mg/mL
- MBC, minimum concentration required to kill an entire population ([22]; Exhibit A1): 20 mg/mL
- MIC, minimum concentration required to inhibit growth ([22]; Exhibit A2): 4 mg/mL
- MBC's, Minimum Bactericidal Concentration [23]: 6 mg/mL
- MIC's, Minimum Inhibitory Concentration [23]: 0.5 mg/mL
- MIC's, Minimum Inhibitory Concentration [24]: 0.5 mg/mL
- MIC's, Minimum Inhibitory Concentration [25]: 0.5 mg/mL
- MBC's, Minimum Bactericidal Concentration [26]: 0.5 mg/mL
- MIC's, Minimum Inhibitory Concentration [26]: 0.5 mg/mL
- MBC's, Minimum Bactericidal Concentration [27]: 8 mg/mL
- MIC's, Minimum Inhibitory Concentration [27]: 0.5 mg/mL
- MBC's, Minimum Bactericidal Concentration [28]: 10 mg/mL
- MIC's, Minimum Inhibitory Concentration [28]: 0.5 mg/mL
- MIC values compared with the other two EDTA compounds ([29]; Exhibit C): lower than the MIC values for the other two EDTA compounds
- MBC values against yeasts compared with bacteria ([29]; Exhibit C versus Gram negative and Gram positive organisms): comparable to the MBC values for the Gram negative and Gram positive organisms
